According to patent US20110160440A1, “Cab Molecules” (GENENCOR INTERNATIONAL, INC., priority 2003, published 2011):

Tests used:
[1] = Treatment-related toxicity (weight loss, animal deaths) in LS174T SCID mouse study; format: in vivo, CB17-SCID mice; conditions: for weight loss: melphalan 10 mg/kg
Excerpt: (§1) Female CB17-SCID mice (8-10 weeks, Taconic Labs) were challenged subcutaneously (SC) with 2×10^6 LS174T cells suspended in serum free DMEM in a volume of 100 microliters (Medimmune ACUC protocol # ACF 037). When mean tumor volumes were approximately 100-150 mm^3, animals were randomly distributed into treatment groups. Animals without detectable tumors or excessively large tumors (volume >300 mm^3) were excluded.
Tumor-bearing animals received CAB1.2 in PBS intravenously (IV) at doses of 1 or 2.5 mg/kg in an injection volume of 100 microliters in PBS. C-Mel stored at −70° C. as a 100 mg/ml frozen solution in DMSO) was formulated fresh (15 mg/ml, in a 5:4 ratio of 0.1M Na bicarbonate:PBS) and administered at a dose of 150 mg/kg on an average weight basis, IV bolus, via the tail vein in an injection volume of 200 microliters to all treatment groups receiving prodrug. Melphalan was formulated fresh (2 mg/ml in 20% DMSO/PBS) and administered intraperitoneally in an injection volume of 100 microliters. Briefly, animals administered CAB1.2 at 2.5 mg/kg were administered C-Mel 18 or 36 hours after CAB1.2 treatment. Animals administered CAB1.2 at 1 mg/kg were administered C-Mel 24 hours after CAB1.2 treatment. Control groups were as follows: untreated, 2.5 mg/kg CAB1.2 alone, 10 mg/kg melphalan, C-Mel alone, 2.5 mg/kg P97ADEPT followed by C-Mel 18 hours later, 1.5 mg/kg Beta-lactamase (BLA, 1.5 mg/kg, which was equimolar to the 2.5 mg/kg CAB1.2 BLA concentrations used), followed by C-Mel 18 hours later. Treatments were repeated once weekly for 3 cycles. Tumor measurements (in millimeters) were taken twice weekly; the investigator measuring the tumors was blinded to the treatment groups.
(§2) Animals were monitored daily for general appearance, animal weights taken once weekly and tumor measurements taken twice weekly. Data was collected and mean tumor volumes for all treatment groups determined±SEM, and plotted for analysis (days post tumor challenge vs tumor volume).
The average weights of individual treatment groups taken on day 9, when the first dose of C-Mel was administered, was used as the baseline weight of tumor-bearing animals for weight loss determinations within each treatment group. […] One animal was lost at day 14 due to procedural error during treatment. Toxicity-related deaths were noted as follows: 2 animals found dead on day 27, 3 animals each found dead on days 30 and 34, for a total of 8/9 toxicity-related deaths on the study for the 18 hr CAB1.2/C-Mel treatment group. […] One animal was sacrificed on day 12 due to excessive necrosis at the tumor site. […]

[2] = tested on: LS174T human colorectal tumor; assay: Anti-tumor activity of CAB1.2 plus C-Mel in LS174T human colorectal model in SCID mice; format: in vivo, CB17-SCID mice
Excerpt: as §1
Tumor-bearing animals received CAB1.2 in PBS intravenously (IV) at doses of 1 or 2.5 mg/kg in an injection volume of 100 microliters in PBS. C-Mel stored at −70° C. as a 100 mg/ml frozen solution in DMSO) was formulated fresh (15 mg/ml, in a 5:4 ratio of 0.1M Na bicarbonate:PBS) and administered at a dose of 150 mg/kg on an average weight basis, IV bolus, via the tail vein in an injection volume of 200 microliters to all treatment groups receiving prodrug. Melphalan was formulated fresh (2 mg/ml in 20% DMSO/PBS) and administered intraperitoneally in an injection volume of 100 microliters. Briefly, animals administered CAB1.2 at 2.5 mg/kg were administered C-Mel 18 or 36 hours after CAB1.2 treatment. […]
as §2

With `N[C@@H](Cc1ccc(N(CCCl)CCCl)cc1)C(=O)O` [Melphalan] as the molecule, how does the weight loss ([1]; day 16) read?
Its weight loss is 11%.

And the weight loss ([1]; day 24)?
The weight loss was 12.5%.

What about the “toxicity-related deaths on the study” value ([1]; melphalan alone 10 mg/kg) of the same molecule?
The value was 3/10.

And the animal deaths ([1]; melphalan at maximum tolerated dose (MTD))?
The animal deaths was 30%.

And the “inhibition vs untreated control” value ([2]; day 34, melphalan 10 mg/kg intraperitoneally (MTD), once weekly 3 cycles)?
The value was 34%.

And the tumor regressions ([2]; melphalan 10 mg/kg treatment group)?
Its tumor regressions is “no tumor regressions occurred”.
